Where two headings read alike, the source gives them in different places.
Columns and labels:
[1] = tested on: apomorphine-induced climbing; assay: climbing mice assay (antagonism of apomorphine-induced climbing; antipsychotic activity); type: in vivo, CK-1 male mice; conditions: Mus musculus, ip, read-out: Antipsychotic Activity ED50
Method: The subject CK-1 male mice (23-27 grams) are group-housed under standard laboratory conditions. The mice are individually placed in wire mesh stick cages (4"×4" by 10") and are allowed one hour for adaptation and exploration of the new environment. […] For evaluation of climbing, 3 readings are taken at 10, 20 and 30 minutes after apomorphine administration according to the following scale: Mice consistently climbing before the injection of apormorphine are discarded. With full-developed apomorphine climbing, the animals are hanging onto the cage wails, rather motionless, over longer periods of time. By contrast, climbs due to mere motor stimulation usually only last a few seconds. The climbing scores are individually totaled (maximal score; 6 per mouse over 3 readings) and the total score of the control group (vehicle intraperitioneally-apomorphine subcutaneously) is set to 100%.

[2] = tested on: apomorphine-induced stereotypy; assay: antagonism of apomorphine-induced stereotypy; type: in vivo, male Wistar rats; conditions: apomorphine 1.5 mg/kg s.c., rats
Method: Antagonism of apomorphine-induced stereotypy is a property of many antipsychotics. […] Antagonism of apomorphine-induced stereotypy of the present 2-(4-piperidinyl)-1H-pyrido[4,3-b]indol-1-ones is determined by methods similar to those described by N. E. Anden, et al., J. Pharma.
Drugs are prepared using distilled water and, if insoluble, a suitable surfactant is added. The route of administration may be varied and the dosage volume is 10 ml/kg. For a primary screen, a group size of six is used. Drug is administered one hour prior to scoring and the animals are placed in individual clear plastic cages (24×14×13 cm). The control group receives vehicle. Apomorphine hydrochloride solution is prepared at a concentration of 1.5 mg/10 ml in a 0.03% ascorbic acid stock solution (30 mg of ascorbic acid in 100 ml of 1% saline) to increase the stability of the apomorphine hydrochloride while in solution. […] Fifty minutes after drug dosing, stereotypic behavior is noted. Stereotypic activity is defined as sniffing, licking or chewing behavior that occurs in a repetitive manner and is rated as follows: Constant sniffing, licking or chewing without interruption; the animal is considered protected if this behavior is interrupted.
The percent effectiveness of a drug is determined by the number of animals protected in each group.
A dose-response is run in the same manner as a primary screen except that a group size of 10 is used and the animals are dosed in a randomized manner. One group receives vehicle. ED50 for stereotypy are calculated by means of probit analysis.

[3] = 30 min before apomorphine 1.5 mg/kg s.c., mice, linear regression

| Compound | ED50 [1, 3] | % Inhibition of Apomorphine-Induced Stereotypy ([2]; dose 38 mg/kg ip) | ED50 [1] | % Inhibition of Apomorphine-Induced Stereotypy ([2]; dose 0.2 mg/kg ip) | % Inhibition of Apomorphine-Induced Stereotypy ([2]; dose 24 mg/kg ip) |
| --- | --- | --- | --- | --- | --- |
| CSc1ccc2c(c1)N(CCC1CCCCN1C)c1ccccc1S2 (stereo not drawn) [thioridazine] | 3.6 mg/kg | 50% |  |  |  |
| O=C(CCCN1CCC(O)(c2ccc(Cl)cc2)CC1)c1ccc(F)cc1 [haloperidol] |  |  | 0.14 mg/kg | 50% |  |
| Cl.Cn1c2c(c3ccccc31)C(=O)N(C1CCN(Cc3ccccc3)CC1)CC2 [5-Methyl-2-[1-(phenylmethyl)-4-piperidinyl]-2,3,4,5-tetrahydro-1H-pyrido[4,3-b]-indole-1-one hydrochloride] | 4.6 mg/kg |  |  |  | 50% |

— patent US5430154A, “2-(4-piperidinyl)-1H-pyrido[4,3-b]-indol-1-ones and related compounds” (Hoechst-Roussel Pharmaceuticals Inc., priority 1993, dated 1995)
